4 compounds from patent US20040043918A1, “Apoptosis inducers, caspase cascade activators and anticancer agent” (KIMIGAFUCHI GAKUEN, priority 2000, published 2004) can be followed below.

Format in all cases: cell-based
Experiment [1] concerns human promyelocytes of leukemia (HL-60). Put plainly: Caspase-1,4 inhibition experiment using a flow cytometer. Particulars: inhibitor preincubated, then DMPC liposome solution, FIG. 5. (In general: In flow cytometry, cells or beads pass a laser one at a time.)
Experiment [2] has the same test system. Put plainly: Caspase-9 inhibition experiment using a flow cytometer (DNA fragmentation, PI dyeing). The method, then: The following experiment was performed using the reagents prepared in section 1-1. First of all, multiple samples were prepared in stages wherein 0 to 120 μl of caspase-9 inhibitor was added to 12 ml of a suspension ([…]) of human promyelocytes of leukemia (HL-60, purchased from Riken Cell Bank). Then, the mixture were incubated for 90 minutes, 2 ml of liposome solution comprising dimyristoyl phosphatidylcholine was each added to the samples. Subsequently, each of the samples were incubated for three hours. After washing each sample with 2 ml of −PBS, 5 ml of 70% ethanol was added to each sample, and each sample was left at freezing temperature for one hour so as to be subjected to tissue-fixing. Furthermore, following washing each sample with 2 ml of −PSB, 6 ml of RNase solution was added to each sample, and subsequently, each sample was incubated for 30 minutes. Next, following adding 670 μl of PI solution, each sample was shielded from light with aluminum foil, and was left in a dark place at freezing temperature for 30 minutes, and was subjected to PI dyeing. After PI dyeing, each sample was subjected to centrifugal separation at 2000 rpm for five minutes. After removal of supernatant, and the precipitation formed was suspended in 500 μl of −PBS so as to measure DNA content using a flow cytometer (product name, COULTER EPICS-XL). Inhibition effects were evaluated by the ratios of the DNA fragmentation percentage of the control (wherein no caspase-9 inhibitor was added, and only a liposome solution comprising dimyristoyl phosphatidylcholine was added) to the DNA fragmentation percentages of the samples wherein caspase-9 inhibitor was added in stages.

Experiment [3] has the same test system. The experiment is described as follows: Procaspase-3 catabolic enzyme inhibition experiment using a flow cytometer. The note with it: inhibitor preincubated, then DMPC liposome solution, FIG. 4.
The mark [4] stands for this setting: control without caspase-9 inhibitor, only DMPC liposome solution, three hours.

Consider “Ac—L-Tyr-L-Val-L-Ala-L-Asp-H [caspase-1,4 inhibitor]”, for which, in experiment [1], the “DNA fragmentation percentage with caspase-1,4 inhibitor added in stages” value is “decreased approximately depending upon the concentration”.

“Ac—L-Leu-L-Glu-L-His-L-Asp-H [caspase-9 inhibitor]”: in experiment [2] (0 to 120 μl inhibitor preincubated 90 minutes, then DMPC liposome solution for three hours, FIG. 3), the “DNA fragmentation percentage with caspase-9 inhibitor added in stages” value was “decreased approximately depending upon the concentration”.

In the case of “Ac—L-Ile-L-Glu-L-Thr-L-Asp-H [procaspase-3 catabolic enzyme inhibitor]”, the “DNA fragmentation percentage with procaspase-3 catabolic enzyme inhibitor added in stages” value in experiment [3] is listed as “decreased approximately depending upon the concentration”.

For `CCCCCCCCCCCCCC(=O)OC[C@H](COP(=O)([O-])OCC[N+](C)(C)C)OC(=O)CCCCCCCCCCCCC` [dimyristoyl phosphatidylcholine, 1,2-dimyristoyl-sn-glycero-3-phosphocholine], in experiment [2] (setting [4]), the “DNA fragmentation of human promyelocytes of leukemia” value is recorded as “clearly observed” and the apoptosis induction entry is “apoptosis was induced”.
